Results on four compounds are retold here after patent US4897403A, “Antimalarial compositions and methods” (The United States of America as represented by the …, priority 1986, dated 1990).

For experiment [1], the system named is chloroquine-sensitive West African clone (D-6). The experiment can be described thus: In vitro susceptibility (radiolabelled hypoxanthine incorporation, semi-automated microdilution), Example 1, clone D-6. Type of experiment: cell-based, P. falciparum. The following applies: Plasmodium falciparum. How it is done: (§1) Throughout the examples, incorporation of radiolabelled hypoxanthine was used to measure a synchronous growth of the malarial parasites and inhibition of incorporation was the measured parameter of the parasites' rsponse to the drugs. Semi-automated microdilution techniques as disclosed by R. E. Desjardins et al, Antimicrob.
(§2) First, the antimalarial properties of verapamil (a calcium channel blocker "reversing compound") in vitro were studied. […] The drug combinations were dosed in fixed ratios of their 50% inhibitory concentrations.

Experiment [2] deals with chloroquine-resistant clone from Indochina (W-2). The experiment can be described thus: microbe, parasite or virus in culture. The conditions noted are these: Plasmodium falciparum. As to the method: as §1, §2
(§3) The IC50 's of each drug in combination set forth in Table 1 were then calculated as a fraction of the control IC50 and plotted as a fraction of one unit of IC50 in FIG. 1. […] The line connecting each unit of IC50 for each clone represents the additivity of drug effects.

Experiment [3] relates to chloroquine-resistant clone from Brazil (IEC 306). Put plainly: microbe, parasite or virus in culture. The conditions noted are these: Plasmodium falciparum. The format is cell-based, P. falciparum. How it is done: as §1, §2, §3
The subject of experiment [4] is chloroquine-sensitive West African clone (D-6). Put plainly: Effect of verapamil on chloroquine sensitivity, Example 2, clone D-6. Type of experiment: cell-based, P. falciparum. The following applies: Plasmodium falciparum, clone D-6, CQ sensitive, IC50 + 1SD.
Description: as §1

Experiment [5] concerns chloroquine-resistant clone from Indochina (W-2). The experiment can be described thus: microbe, parasite or virus in culture. The format is cell-based, P. falciparum. The following applies: for IC50: Plasmodium falciparum.
Description: as §1

In experiment [6] the test system is Isolates of P. falciparum from Thailand. The following applies: cited from earlier work.
Experiment [7] concerns malarial parasites. The experiment can be described thus: Antimalarial properties of verapamil in vitro. The format is cell-based, P. falciparum. How it is done: as §1, §2
Experiment [8] concerns malarial parasite growth or hypoxanthine uptake. Put plainly: Effect of verapamil alone on malarial parasite growth or hypoxanthine uptake in vitro. The following applies: 1×10^-6 M and 2×10^-6 M. Type of experiment: cell-based, P. falciparum.
Description: as §1

Molecules are shown by their SMILES. Where two headings read alike, the source gives them in different places.

On to `CCN(CC)CCCC(C)Nc1ccnc2cc(Cl)ccc12` (stereo not shown) [chloroquine], for which the IC50 was determined as 4.4 nM in experiment [1] (read-out: IC50 of chloroquine in drug combination, CQ 25 nM/VER 75 μM fixed ratio, clone D-6); 8 nM in experiment [1] (read-out: IC50 of chloroquine in drug combination, CQ 50 nM/VER 50 μM fixed ratio, clone D-6); 11.4 nM in experiment [1] (read-out: IC50 of chloroquine in drug combination, CQ 75 nM/VER 25 μM fixed ratio, clone D-6); 14.1 nM in experiment [1] (read-out: fifty percent inhibitory concentration (IC50), single drug chloroquine, chloroquine alone, clone D-6); 1.5 nM in experiment [2] (read-out: IC50 of chloroquine in drug combination, CQ 25 nM/VER 75 μM fixed ratio, clone W-2); 1.3 nM in experiment [2] (read-out: IC50 of chloroquine in drug combination, CQ 50 nM/VER 50 μM fixed ratio, clone W-2). The IC50 in experiment [2] (read-out: IC50 of chloroquine in drug combination, CQ 75 nM/VER 25 μM fixed ratio, clone W-2) turned out to be 3.8 nM; in experiment [3] (read-out: IC50 of chloroquine in drug combination, CQ 25 nM/VER 75 μM fixed ratio, clone IEC-306), 2.8 nM; in experiment [3] (read-out: IC50 of chloroquine in drug combination, CQ 50 nM/VER 50 μM fixed ratio, clone IEC-306), 6.3 nM; in experiment [3] (read-out: IC50 of chloroquine in drug combination, CQ 75 nM/VER 25 μM fixed ratio, clone IEC-306), 11.7 nM; in experiment [3] (read-out: fifty percent inhibitory concentration (IC50), single drug chloroquine, chloroquine alone, clone IEC-306), 52.3 nM; in experiment [4] (read-out: IC50 of chloroquine + 1 × 10^-6 M VER, with 1 × 10^-6 M verapamil), 7.8 ± 0.6 nM. The IC50 stood at 8.8 ± 0.3 nM in experiment [4] (read-out: IC50 of chloroquine + 2 × 10^-6 M VER, with 2 × 10^-6 M verapamil); 8.4 ± 0.4 nM in experiment [5] (read-out: IC50 of chloroquine + 1 × 10^-6 M VER); 5.6 ± 0.3 nM in experiment [5] (read-out: IC50 of chloroquine + 2 × 10^-6 M VER). In addition, the “sensitivity of chloroquine-resistant clone to chloroquine in presence of verapamil (FIGS. 2 and 3)” value in experiment [5] (constant concentration of verapamil, compared with chloroquine-sensitive West African clone) is reported as “as sensitive to the chloroquine treatment as the chloroquine-sensitive West African clone”. The “resistance of isolates in vitro” value in experiment [6] was “resistant”.
`OC(c1cc(C(F)(F)F)nc2c(C(F)(F)F)cccc12)C1CCCCN1` (stereo not shown) [mefloquine]: the “resistance of isolates in vitro” value in experiment [6] is “resistant”.
Consider `C=C[C@H]1C[N@@]2CC[C@H]1C[C@H]2[C@H](O)c1ccnc2ccc(OC)cc12` [quinine], for which the “resistance of isolates in vitro” value in experiment [6] is reported as “resistant”.
As for `COc1ccc(CCN(C)CCCC(C#N)(c2ccc(OC)c(OC)c2)C(C)C)cc1OC` (stereo not shown) [verapamil], the IC50 in experiment [7] (Plasmodium falciparum, read-out: inhibitory concentration (IC50)) was in the range of 6 to 8 mg/L. The “fold less potent than chloroquine or mefloquine” value in experiment [7] (verapamil vs chloroquine or mefloquine, in vitro) was 1,000 fold. Also, the “effect on malarial parasite growth or hypoxanthine uptake in vitro” value in experiment [8] is reported as “no significant effects”.
